This experiment has as its system TNF-α. Briefly: Inhibition of LPS-induced TNFα release from peripheral human leukocytes, TNFα-specific enzyme immunoassay of culture supernatant. In kind it is cell-based. The following applies: Leukocyte, Periphere humane Leukozyten, LPS über 22 Std., TNFα im Kulturüberstand. The source says: Periphere humane Leukozyten werden mit LPS über 22 Std. inkubiert. Der Kultutüberstand wird mit einem TNFα spezifischen Enzym-Immuno-Assay untersucht. Durch Vergleich der für die Messproben erhaltenen TNFα-Konzentrationen mit den ungehemmten Proben wird die prozentuale Hemmung für die einzelne Probe berechnet. Aus der Konzentrationsabhängigkeit der Hemmwerte werden rechnerisch die IC50-Werte bestimmt. […]
Die IC50-Werte der oben genannten Substanzen, die Gegenstand dieses Patentes sind, gegen TNF-α finden sich in der folgenden Tabelle;
For orientation: IC50 means the concentration that inhibits the measured activity by half. Consider `CCOC(=O)Cc1ccc2c(C(=O)OCC)c(N)c(C(=O)OCC)c-2cc1` [Verbindung 1, 2-Amino-6-ethoxycarbonylmethyl-azulen-1,3-dicarbonsäurediethylester], for which 200 nM corresponded to half-maximal inhibition (IC50).

Consider `CCOC(=O)Cc1ccc2c(C(=O)OCC)c(N(C(C)=O)C(C)=O)c(C(=O)OCC)c-2cc1` [Verbindung 2, 2-Diacetylamino-6-ethoxycarbonylmethyl-azulen-1,3-dicarbonsäurediethylester], for which the midpoint of inhibition, the IC50, lay at 50 nM. In the case of `CCOC(=O)c1c2ccc(C(C(=O)OCC)C(=O)OCC)ccc-2c(C(=O)OCC)c1N(C(C)=O)C(C)=O` [Verbindung 3, 6-(Bis-ethoxycarbonylmethyl)-2-diacetylamino-azulen-1,3-dicarbonsäurediethylester] it was 180 nM; in that of `CCOC(=O)c1c2ccc(Br)ccc-2c(C(=O)OCC)c1N(C(C)=O)C(C)=O` [Verbindung 4, 6-Bromo-2-diacetylamino-azulen-1,3-dicarbonsäurediethylester], 1300 nM; in that of `CCOC(=O)c1c2ccc(Br)ccc-2c(C(=O)OCC)c1NC(C)=O` [Verbindung 5, 2-Acetylamino-6-bromo-azulen-1,3-dicarbonsäurediethylester], 1100 nM. For the compound `CCOC(=O)Cc1ccc2c(C(=O)OCC)c(OCC)c(C(=O)OCC)c-2cc1` [Verbindung 6, 2-Ethoxy-6-ethoxycarbonylmethyl-azulen-1,3-dicarbonsäurediethylester], the 50% inhibitory concentration (IC50) turned out to be 11900 nM. In the case of `CCOC(=O)c1c2cccccc-2c(C(=O)OCC)c1N` [Verbindung 7, 2-Amino-azulen-1,3-dicarbonsäurediethylester], the IC50 came to 25400 nM.

`CCOC(=O)c1c2ccc(S)ccc-2c(C(=O)OCC)c1N` [Verbindung 8, 2-Amino-6-mercapto-azulen-1,3-dicarbonsäurediethylester] yielded a half-maximal inhibitory concentration (IC50) of 26000 nM.

Take `CCOC(=O)C(Cc1ccc2c(C(=O)OCC)c(Cl)c(C(=O)OCC)c-2cc1)=NO` [Verbindung 9, 2-Chloro-6-(2-ethoxycarbonyl-2-hydroxyimino-ethyl)-azulen-1,3-dicarbonsäurediethylester]: the IC50 was found to be 2700 nM. The compound `Cc1cc(C=CC=O)c2c(C)ccc(C(C)C)cc1-2` [Verbindung 10, 3-(5-isopropyl-3,8-dimethyl-azulen-1-yl)-propenal] returned an IC50 of 10700 nM.

The record behind these values is patent EP0887077A1, “Use of azulene derivatives as metalloprotease inhibitors” (BOEHRINGER MANNHEIM GMBH, priority 1997, dated 1998).
